How the values were obtained:
[1] = system: endogenous Myosin light chain-2 (Myl2) expression in C2C12 cells; experiment: Myl2 expression in C2C12 cells, RT-PCR normalized to GAPDH; format: cell-based; conditions: for Myl2 Relative expression/Gapdh at 2.5 μM: C2C12 cells, relative to GAPDH house-keeping control gene
Experimental: Bioactivity data of AMBMP analogs 1-6, 17, 18, and 25. Dose dependent effect of AMBMP analogs 1-6, 17, 18, and 25 on endogenous Myosin light chain-2 (Myl2) expression in C2C12 cells is shown in FIG. 16 A.
Effect of 2.5 μM AMBMP analog 1-6, 8, 17, 21, 25, 38, 39, and 40 on Myl2 expression relative to GAPDH (house-keeping control gene) in C2C12 cells is shown in Table 1. Myl2 is a marker of CaMKIIβ activity.
AMBMP analog 40 was tested in C2C12 myogenic cells for its ability to induce expression of Myl2. C2C12 cells were treated with AMBMP or AMBMP analog 40 for 48 hrs (concentrations are indicated on the graph); DMSO was used as a negative control. Expression of Myl2 was assessed by RT-PCR and normalized to GAPDH as a house-keeping control gene.

[2] = log P (partition coefficient between organic and aqueous phase); format: physicochemical
Excerpt: It has been determined that compounds having a chemical structure of Formula I and/or Formula VII, or a pharmaceutically acceptable salt or solvate thereof, can increase muscle mass and muscle function. These chemicals can be effective in treating muscular dystrophy, such as limb girdle muscular dystrophy type 2A/R1/D1. Not to be bound by theory, it is believed that these compounds may provide their biological effect by over-riding the CAMKII signaling block by activating CaMKII. Accordingly, these can increase muscle size, mitochondrial complex I and II activity, expression of genes that comprise the slow fiber phenotype and running performance. Embodiments of the current disclosure is directed to compositions and methods of use for compounds having a chemical structure of Formula I and/or Formula VII, or a pharmaceutically acceptable salt or solvate thereof, that show similar or higher activity on CAMKII signaling as of AMBMP, but are less toxic and/or more soluble than AMBMP (Formula VI). […] One or more compounds having a chemical structure of Formula I and/or Formula VII, can have a EC50 potency of <1 uM on endogenous myosin light chain 2 (Myl2) promoter in C2C12 cells. The compounds can have a solubility >10 uM in water at standard temperature and pressure. […] Toxicity can be measured as a dose dependent effect of the compounds on cell death of C2C12 cells.

CaMKIIβ [3] = biological target: T1, CaMKIIβ (Mus musculus, UniProt P28652); experiment: CaMKIIβ activation in mouse skeletal muscles after injection, western blot with anti-phospho CaMKIIβ antibody; format: in vivo; conditions: mice, 10 mg/kg intraperitoneally; muscles collected 2, 4 and 6 hrs after injection; DMSO control
T1 construct: from tissue; host or cells: tissue of treated C3KO and WT mice
Experimental: Mice were injected intraperitoneally with 10 mg/kg of AMBMP analog 3. Skeletal muscles were collected at 2, 4 and 6 hrs after injection. Mice injected with DMSO were used as a control group.

C2C12 myogenic cells = experiment: Tolerance of C2C12 myogenic cells to compound; format: cell-based; conditions: data not shown
C3KO mice [4] = experiment: Exercise performance after endurance training in C3KO mice; format: in vivo; conditions: i.p. 7.5 mg/kg/day for 14 days, 3-week endurance training
Excerpt: Shown in FIG. 13, AMBMP treatment leads to improved exercise performance. Mice were subjected to endurance training over a 3-week period while being treated. Exercise performance was compared between pre and post exercise condition. Wild type (WT) mice were not treated with AMBMP.

AMPK = AMPK signaling in treated C3KO mice; format: in vivo; conditions: i.p. 7.5 mg/kg/day for 2 weeks
Excerpt: (§1) Shown in FIG. 14, C3KO mice treated with AMBMP have normalized CaMKIIβ activity, but AKT or AMPK signaling are not affected.

CaMKIIβ [5] = biological target: T1, CaMKIIβ; experiment: CaMKIIβ activity in mice treated for 2 weeks; format: in vivo; conditions: i.p. 7.5 mg/kg/day for 2 weeks
Excerpt: as §1

C3KO mice [6] = experiment: Mitochondrial function / mitochondrial content (NADH staining) in muscles of treated C3KO mice; format: in vivo
Experimental: (§2) Average cross-sectional area (CSA) measured in muscle cross sections after staining for fiber type. […] A) C3KO mice i.p. injected with AMBMP hydrochloride (7.5 mg/kg/day) for 14 days. B) C3KO mice treated AMBMP hydrochloride (7.5 mg/kg/day) for 14 days by subcutaneous (subQ) injection.
One set of C3KO mice were i.p. injected with AMBMP hydrochloride (7.5 mg/kg/day) for 14 days, another set of C3KO mice were i.p. injected with AMBMP hydrochloride (15 mg/kg/day) for 14 days and a control set of C3KO mice were not treated with AMBMP. Percent of total fibers with high mitochondrial content and intermediate mitochondrial content increased with AMBMP treatment in a dose dependent manner, and percent of total fibers with low mitochondrial content decreased with AMBMP treatment in a dose dependent manner (FIG. 12A). […] Quantification of NADH staining on plantaris muscles from AMBMP-treated mice (either 7.5 or 15 mg/kg, for 2 weeks (wks)) shown as a ratio of FOG:FG fibers. *p<0.05.

C3KO mice [7] = experiment: Muscle fiber cross-sectional area in treated C3KO mice; format: in vivo; conditions: 7.5 mg/kg/day for 14 days, i.p. or subQ injection
Experimental: as §2

AKT = AKT signaling in treated C3KO mice; format: in vivo; conditions: i.p. 7.5 mg/kg/day for 2 weeks
Excerpt: as §1

Capn3−/− muscles = experiment: Percent slow myosin heavy chain positive fibers in soleus of calpainopathy mice; format: in vivo; conditions: daily for 2 wks at 30 mg/kg subQ

T1 sequence (P28652 whole entry): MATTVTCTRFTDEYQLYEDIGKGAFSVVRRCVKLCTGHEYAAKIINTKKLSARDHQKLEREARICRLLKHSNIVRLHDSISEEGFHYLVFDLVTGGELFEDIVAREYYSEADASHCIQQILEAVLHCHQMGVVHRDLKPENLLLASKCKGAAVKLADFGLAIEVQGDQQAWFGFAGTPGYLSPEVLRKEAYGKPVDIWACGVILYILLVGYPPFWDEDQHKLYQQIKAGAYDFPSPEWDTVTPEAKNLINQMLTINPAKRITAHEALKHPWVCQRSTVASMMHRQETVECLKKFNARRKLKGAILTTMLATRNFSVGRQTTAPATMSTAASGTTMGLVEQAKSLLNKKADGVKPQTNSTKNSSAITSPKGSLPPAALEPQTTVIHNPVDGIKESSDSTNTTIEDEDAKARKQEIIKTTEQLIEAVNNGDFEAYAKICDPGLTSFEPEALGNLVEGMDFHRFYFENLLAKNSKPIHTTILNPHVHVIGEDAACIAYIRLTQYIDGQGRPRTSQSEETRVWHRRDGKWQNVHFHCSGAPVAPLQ

SMILES: Nc1nc(NCc2ccc3c(c2)OCO3)cc(-c2cccc(O)c2)n1 [AMBMP Analog 3, 3-(2-amino-6-((benzo[d][1,3]dioxol-5-ylmethyl)amino)pyrimidin-4-yl)phenol]
- Myl2 Relative expression/Gapdh at 2.5 μM [1]: 0.4
- logP [2]: 2.47
- phospho-CaMKIIβ (P-CaMK) in skeletal muscles (CaMKIIβ [3]): CaMKIIβ activation

SMILES: CCOc1cccc(-c2cc(NCc3ccc4c(c3)OCO4)nc(N)n2)c1 [AMBMP Analog 4]
- Myl2 Relative expression/Gapdh at 2.5 μM [1]: 2

SMILES: CCCOc1cccc(-c2cc(NCc3ccc4c(c3)OCO4)nc(N)n2)c1 [AMBMP Analog 5]
- Myl2 Relative expression/Gapdh at 2.5 μM [1]: 0.6

SMILES: CC(C)(C)Oc1cccc(-c2cc(NCc3ccc4c(c3)OCO4)nc(N)n2)c1 [AMBMP Analog 6]
- Myl2 Relative expression/Gapdh at 2.5 μM [1]: 1.2

SMILES: Nc1nc(NCc2ccc3c(c2)OCO3)cc(-c2ccc(OC(F)(F)F)cc2)n1 [AMBMP Analog 17]
- Myl2 Relative expression/Gapdh at 2.5 μM [1]: 0.2

SMILES: COc1cc(O)cc(-c2cc(NCc3ccc4c(c3)OCO4)nc(N)n2)c1 [AMBMP Analog 40, 3-(2-amino-6-((benzo[d][1,3]dioxol-5-ylmethyl)amino)pyrimidin-4-yl)-5-methoxyphenol]
- tolerance by the cells compared to AMBMP (C2C12 myogenic cells): better tolerated
- Myl2 Relative expression/Gapdh at 2.5 μM [1]: 1.2
- increase of Myl2 expression ([1]; C2C12 myogenic cells treated 48 hrs (1.25 μM, 5 μM), RT-PCR normalized to GAPDH, DMSO negative control): 2.5-2.9 fold

SMILES: COc1cccc(-c2cc(NCc3ccc4c(c3)OCO4)nc(N)n2)c1.Cl [AMBMP hydrochloride]
- exercise performance pre vs post endurance training (C3KO mice [4]): show a training effect
- AMPK signaling (AMPK): without impacting
- CaMKIIβ activity over untreated control (CaMKIIβ [5]; C3KO mice): increased CaMKIIβ activity
- CaMKIIβ activity over untreated control (CaMKIIβ [5]; WT mice): increased CaMKIIβ activity
- mitochondrial function compared to control (C3KO mice [6]; i.p. 7.5 mg/kg/day for 14 days): improved mitochondrial function
- mitochondrial content (C3KO mice [6]; i.p. 7.5 or 15 mg/kg/day for 14 days, plantaris muscles): increased mitochondrial content in a dose dependent manner
- cross-sectional area of slow fibers (C3KO mice [7]): significantly increased
- cross-sectional area, both fiber types (C3KO mice [7]): increase
- AKT signaling (AKT): without impacting

SMILES: COc1cccc(-c2cc(NCc3ccc4c(c3)OCO4)nc(N)n2)c1 [AMBMP]
- Myl2 Relative expression/Gapdh at 2.5 μM [1]: 1.4
- % slow myosin heavy chain positive fibers in soleus (Capn3−/− muscles): Statistically significant shift

From patent US12441716B2, “Compositions and methods for increasing muscle mass and oxidative metabolism” (The Regents of the University of California, priority 2019, dated 2025)
